Measured values from patent US11897865B2, “ABHD12 inhibitors and methods of making and using same” (THE SCRIPPS RESEARCH INSTITUTE, priority 2018, dated 2024).

Target: T1, ABHD12 (Mus musculus, UniProt Q99LR1)
T1 construct: from tissue; host or cells: brain membrane proteome
T1 sequence (Q99LR1 1-398): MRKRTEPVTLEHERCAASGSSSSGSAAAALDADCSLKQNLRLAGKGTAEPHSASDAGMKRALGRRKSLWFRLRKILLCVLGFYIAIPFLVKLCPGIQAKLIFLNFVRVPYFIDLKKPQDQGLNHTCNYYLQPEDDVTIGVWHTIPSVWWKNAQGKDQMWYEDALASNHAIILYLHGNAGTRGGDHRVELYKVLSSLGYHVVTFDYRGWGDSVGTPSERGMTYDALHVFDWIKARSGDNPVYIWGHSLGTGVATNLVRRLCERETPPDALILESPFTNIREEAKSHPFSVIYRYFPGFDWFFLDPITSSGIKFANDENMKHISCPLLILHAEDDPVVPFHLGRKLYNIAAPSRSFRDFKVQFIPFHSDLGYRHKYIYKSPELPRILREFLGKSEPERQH
Experiment: Gel-based competitive ABPP, JJH350 probe vs brain membrane proteome
Format: biochemical
Details: for IC50: read-out: IC50 (ABPP gel_JJH350 probe vs brain mem); for inhibition at 10 µM: 10 μM compound, read-out: % Inhibition @ 10 μM (ABPP gel_JJH350 probe vs brain mem); for % Inhibition (ABPP gel_JJH350 probe vs brain mem), at 2 uM: at 2 uM compound
Method: Gel-Based Competitive ABPP for In Vitro Inhibitor Treatment of Proteomes:
Gel-based ABPP assays were performed as previously reported (Bachovchin, D. A. et al. Superfamily-wide portrait of serine hydrolase inhibition achieved by library-versus-library screening. Proc. Natl. Acad. Sci. U. S. A. 2010, 107, 20941-20946). Cell or tissue proteomes (50 μL, 1 mg/mL) were treated with either FP-Rh (1 μM final concentration) or JJH350 (2 μM final concentration) for 45 min at 37° C. For FP-Rh labeled samples, the reactions were quenched by adding 20 μL of 4× SDS-PAGE loading buffer. The 30 μL of the quenched samples were loaded on gel for analysis. For (S)-1,3-dioxo-7-(4-phenoxybenzoyl)hexahydroimidazo[1,5-a]pyrazin-2(3H)-yl 4-(4-(prop-2-yn-1-yloxy)phenyl)piperazine-1-carboxylate (JJH350)-labeled samples, copper-catalyzed azide-alkyne cycloaddition (CuAAC) was used for visualizing the labeled proteins following the reported protocol. Briefly, rhodamine-PEG3-N3 (1 μL/reaction, 1.25 mM in DMSO), CuSO4 (1 μL/reaction, 50 mM in H2O), TBTA (3 μL/reaction, 1.7 mM in DMSO/t-BuOH [1:4, v/v]) and tris(2-carboxyethyi)phosphine (TCEP) (1 μL/reaction, 50 mM in H2O, freshly prepared) were premixed. 6 μL of this click reagent mixture was immediately added to each JJH350-labeled samples (50 μL, 1 mg/mL) and incubated for 1 h at room temperature. The reactions were quenched by adding 20 μL of 4× SDS-PAGE loading buffer. The 40 μL of the quenched samples were loaded on a gel for analysis.
After separation by SDS-PAGE (10% acrylamide), samples were visualized by in-gel fluorescence scanning using the ChemiDoc MP system (Bio-Rad). Band intensities were quantified using the Image Lab (5.2.1) software (Bio-Rad).

| IC50 [nM] | inhibition at 10 µM [%] | SMILES | % Inhibition (ABPP gel_JJH350 probe vs brain mem), at 2 uM |
| --- | --- | --- | --- |
| 100 to 1000 | – | O=C(Nc1cccnc1)NC1CCN(c2nccc(Oc3ccc(OC(F)(F)F)cc3Cl)c2Cl)CC1 [Example 6, 1-(1-(3-Chloro-4-(2-chloro-4-(trifluoromethoxy)phenoxy)pyridin-2-yl)piperidin-4-yl)-3-(pyridin-3-yl)urea] | – |
| – | ≥ 75 | Cc1cnc(N2CCC(NC(=S)Nc3cccnc3)CC2)c(Cl)c1 [Example 8, 1-(1-(3-Chloro-5-methylpyridin-2-yl)piperidin-4-yl)-3-(pyridin-3-yl)thiourea] | – |
| – | ≥ 75 | FC(F)(F)c1cnc(N2CCC(NC(=S)Nc3ccccc3)CC2)c(Cl)c1 [Example 9, 1-(1-(3-Chloro-5-(trifluoromethyl)pyridin-2-yl)piperidin-4-yl)-3-phenylthiourea] | – |
| – | – | C#Cc1ccc(N2CCC(NC(=S)Nc3cccnc3)CC2)nc1 [Example 10, 1-(1-(5-Ethynylpyridin-2-yl)piperidin-4-yl)-3-(pyridin-3-yl)thiourea] | C (at 2 uM) (% inhibition is greater than or equal to 25% and less than 50%) |
| – | ≥ 75 | S=C(Nc1cccnc1)NC1CCN(c2ccc(Cl)cn2)CC1 [Example 11, 1-(1-(5-Chloropyridin-2-yl)piperidin-4-yl)-3-(pyridin-3-yl)thiourea] | – |
| – | ≥ 75 | Fc1ccc(N2CCC(NC(=S)Nc3cccnc3)CC2)nc1 [Example 12, 1-(1-(5-Fluoropyridin-2-yl)piperidin-4-yl)-3-(pyridin-3-yl)thiourea] | – |
| – | ≥ 75 | FC(F)(F)Oc1ccc(N2CCC(NC(=S)Nc3cccnc3)CC2)nc1 [Example 13, 1-(Pyridin-3-yl)-3-(1-(5-(trifluoromethoxy)pyridin-2-yl)piperidin-4-yl)thiourea] | – |
| – | 50 to 75 | S=C(Nc1cccnc1)NC1CCN(c2ncccc2Cl)CC1 [Example 17, 1-(1-(3-Chloropyridin-2-yl)piperidin-4-yl)-3-(pyridin-3-yl)thiourea] | – |
| – | ≥ 75 | FC(F)(F)c1cc(Cl)cnc1N1CCC(NC(=S)Nc2cccnc2)CC1 [Example 18, 1-(1-(5-Chloro-3-(trifluoromethyl)pyridin-2-yl)piperidin-4-yl)-3-(pyridin-3-yl)thiourea] | – |
| – | 0 to 25 | S=C(Nc1cccnc1)NC1CCN(c2ccc(Cl)nc2)CC1 [Example 19, 1-(1-(6-Chloropyridin-3-yl)piperidin-4-yl)-3-(pyridin-3-yl)thiourea] | – |
| – | – | C#Cc1cnc(N2CCC(NC(=S)Nc3cccnc3)CC2)c(Cl)c1 [Example 20, 1-(1-(3-Chloro-5-ethynylpyridin-2-yl)piperidin-4-yl)-3-(pyridin-3-yl)thiourea] | B (at 2 uM) (% inhibition is greater than or equal to 50% and less than 75%) |
| – | ≥ 75 | Fc1cc(C(F)(F)F)cnc1N1CCC(NC(=S)Nc2cccnc2)CC1 [Example 21, 1-(1-(3-Fluoro-5-(trifluoromethyl)pyridin-2-yl)piperidin-4-yl)-3-(pyridin-3-yl)thiourea] | – |
| – | ≥ 75 | FC(F)(F)Oc1ccc(-c2ccnc(N3CCC(NC(=S)Nc4cccnc4)CC3)c2)cc1 [Example 22, 1-(Pyridin-3-yl)-3-(1-(4-(4-(trifluoromethoxy)phenyl)pyridin-2-yl)piperidin-4-yl)thiourea] | – |
| – | ≥ 75 | FC(F)(F)Oc1cccc(-c2ccnc(N3CCC(NC(=S)Nc4cccnc4)CC3)c2)c1 [Example 23, 1-(Pyridin-3-yl)-3-(1-(4-(3-(trifluoromethoxy)phenyl)pyridin-2-yl)piperidin-4-yl)thiourea] | – |
| – | 50 to 75 | FC(F)(F)c1ccccc1-c1ccnc(N2CCC(NC(=S)Nc3cccnc3)CC2)c1 [Example 24, 1-(pyridin-3-yl)-3-(1-(4-(2-(trifluoromethyl)phenyl)pyridin-2-yl)piperidin-4-yl)thiourea] | – |
| 1000 to 25000 | ≥ 75 | S=C(Nc1cccnc1)NC1CCN(c2cc(OC3CCCCC3)ccn2)CC1 [Example 30, 1-(1-(4-(Cyclohexyloxy)pyridin-2-yl)piperidin-4-yl)-3-(pyridin-3-yl)thiourea] | – |

| IC50 [nM] | inhibition at 10 µM [%] | SMILES | % Inhibition (ABPP gel_JJH350 probe vs brain mem), at 2 uM |
| --- | --- | --- | --- |
| 1000 to 25000 | ≥ 75 | S=C(Nc1cccnc1)NC1CCN(c2cc(OCC3CC3)ccn2)CC1 [Example 31, 1-(1-(4- (Cyclopropylmethoxy)pyridin-2-yl)piperidin-4-yl)-3-(pyridin-3-yl)thiourea] | – |
| – | 50 to 75 | FC(F)COc1ccnc(N2CCC(NC(=S)Nc3cccnc3)CC2)c1 [Example 32, 1-(1-(4-(2,2-Difluoroethoxy)pyridin-2-yl)piperidin-4-yl)-3-(pyridin-3-yl)thiourea] | – |
| – | ≥ 75 | S=C(Nc1cccnc1)NC1CCN(c2cc(OCCC3CC3)ccn2)CC1 [Example 33, 1-(1-(4-(2-Cyclopropylethoxy)pyridin-2-yl)piperidin-4-yl)-3-(pyridin-3-yl)thiourea] | – |
| – | ≥ 75 | FC1(F)CCC(Oc2ccnc(N3CCC(NC(=S)Nc4cccnc4)CC3)c2)CC1 [Example 35, 1-(1-(4-((4,4-Difluoro-cyclohexyl)oxy)pyridin-2-yl)piperidin-4-yl)-3-(pyridin-3-yl)thiourea] | – |
| – | 50 to 75 | CC(C)OC(=O)N1CCC(Oc2ccnc(N3CCC(NC(=S)Nc4cccnc4)CC3)c2)CC1 [Example 36, Isopropyl 4-((2-(4-(3-(pyridin-3-yl)thioureido)piperidin-1-yl)pyridin-4-yl)oxy)piperidine-1-carboxylate] | – |
| 1000 to 25000 | ≥ 75 | S=C(Nc1cccnc1)NC1CCN(c2cc(OCc3ccccc3)ccn2)CC1 [Example 37, 1-(1-(4-(Benzyloxy)pyridin-2-yl)piperidin-4-yl)-3-(pyridin-3-yl)thiourea] | – |
| – | ≥ 75 | Fc1ccc(COc2ccnc(N3CCC(NC(=S)Nc4cccnc4)CC3)c2)cc1 [Example 38, 1-(1-(4-((4-Fluorobenzyl)oxy)pyridin-2-yl)piperidin-4-yl)-3-(pyridin-3-yl)thiourea] | – |
| – | ≥ 75 | FC(F)(F)Oc1ccc(COc2ccnc(N3CCC(NC(=S)Nc4cccnc4)CC3)c2)cc1 [Example 39, 1-(Pyridin-3-yl)-3-(1-(4-((4-(trifluoromethoxy)benzyl)oxy)pyridin-2-yl)piperidin-4-yl)thiourea] | – |
| – | ≥ 75 | Fc1ccc(COc2ccnc(N3CCC(NC(=S)Nc4cccnc4)CC3)c2)cc1F [Example 42, 1-(1-(4-((3,4-Difluorobenzyl)oxy)pyridin-2-yl)piperidin-4-yl)-3-(pyridin-3-yl)thiourea] | – |
| – | ≥ 75 | Fc1cc(Cl)ccc1Oc1ccnc(N2CCC(NC(=S)Nc3cccnc3)CC2)c1 [Example 43, 1-(1-(4-(4-Chloro-2-fluorophenoxy)pyridin-2-yl)piperidin-4-yl)-3-(pyridin-3-yl)thiourea] | – |
| 1000 to 25000 | 50 to 75 | COc1ccnc(N2CCC(NC(=S)Nc3cccnc3)CC2)c1 [Example 44, 1-(1-(4-Methoxypyridin-2-yl)piperidin-4-yl)-3-(pyridin-3-yl)thiourea] | – |
| 1000 to 25000 | 25 to 50 | S=C(Nc1cccnc1)NC1CCN(c2cc(-c3ccccc3)ccn2)CC1 [Example 45, 1-(1-(4-Phenylpyridin-2-yl)piperidin-4-yl)-3-(pyridin-3-yl)thiourea] | – |
| – | 0 to 25 | COc1ccc(-c2ccnc(N3CCC(NC(=S)Nc4cccnc4)CC3)c2)cc1 [Example 46, 1-(1-(4-(4-Methoxyphenyl)pyridin-2-yl)piperidin-4-yl)-3-(pyridin-3-yl)thiourea] | – |
| – | ≥ 75 | Fc1ccc(-c2ccnc(N3CCC(NC(=S)Nc4cccnc4)CC3)c2)cc1 [Example 47, 1-(1-(4-(4-Fluorophenyl)pyridin-2-yl)piperidin-4-yl)-3-(pyridin-3-yl)thiourea] | – |
| – | ≥ 75 | Fc1ccc(-c2ccnc(N3CCC(NC(=S)Nc4cccnc4)CC3)c2)cc1F [Example 48, 1-(1-(4-(3,4-Difluorophenyl)pyridin-2-yl)piperidin-4-yl)-3-(pyridin-3-yl)thiourea] | – |

| SMILES | IC50 [nM] | inhibition at 10 µM [%] | % Inhibition (ABPP gel_JJH350 probe vs brain mem), at 2 uM |
| --- | --- | --- | --- |
| FC(F)(F)CCCOc1ccnc(N2CCC(NC(=S)Nc3cccnc3)CC2)c1 [Example 34, 1-(Pyridin-3-yl)-3-(1-(4-(4,4,4-trifluorobutoxy)pyridin-2-yl)piperidin-4-yl)thiourea] | – | ≥ 75 | – |
